For 25 compounds, IC50 results are on record in patent publication US8569298B2, “Pyridine compounds” (Astrazeneca AB, priority 2008, dated 2013).

The target in the assay is T1, FAK enzyme (6 His tagged kinase domain, GenBank NP—722560) (Homo sapiens, UniProt Q05397).
T1 construct: 6 His; made in house; host or cells: insect cell culture infected with baculovirus
Description: In vitro enzyme assay (a): sandwich ELISA of FAK tyrosine kinase activity on polyGAT peptide, TMB colorimetric endpoint. Type of assay: biochemical. Conditions: in vitro Enzyme Assay test (a); ATP at Km; geometric mean of n > 1 measurements, values marked * tested once. As for the experimental part: (a) In Vitro Enzyme Assay
A sandwich ELISA assay with a 3,3′,5,5′-tetramethyl benzidine (TMB) colorimetric endpoint was used in order to determine the level of effect of selected compounds on inhibition of FAK protein tyrosine kinase enzyme activity. A synthetic tyrosine containing peptide is coated onto a plastic surface, the level of phosphorylation of these tyrosine residues by the kinase enzyme in the presence of inhibitors is measured using an antibody that binds specifically to phosphorylated tyrosine residues. The amount of antibody bound to substrate is proportional to the level of enzyme catalysis.
Assay Protocol to Identify Inhibitors of Focal Adhesion Kinase (FAK).
A PlateMate Plus™ 384 automated liquid handling unit with a 100 μl disposable tip head was used to make all the non compound reagent additions and a Tecan 384PW plate washer with 384 head was used for all wash steps. Initially Matrix 384 well polystyrene plates (Cat #:4311) were coated with 40 μl/well of a 0.0375 mg/ml solution of synthetic poly peptide (polyGAT, Sigma Cat #:P3899) dissolved in phosphate buffered saline (PBS). Plates were stored overnight at 4° C. Immediately before use the coating solution was aspirated out and each well washed with 2×100 μl of PBS+0.05% Tween 20. To remove surplus phosphate, the wells were then washed with 2×100 μl 50 mM HEPES buffer pH 7.4. Plates were blotted dry before the addition of compounds. Compounds were tested over a 12 point dose range, a Labcyte Echo 550 was used to dispense compounds in nl volumes and back fill with DMSO. The final concentration of compound in the assay was dependent on the starting concentration of compound. For a 10 mM stock compound the final assay dose ranged from 100 μM down to […]. Control wells containing 120 nl DMSO (Max) or 120 nl of 10 mM staurosporine (LC Laboratories, Boston, USA Cat #: S-9300) (Min) were included in each plate. 10 ul of 5% dimethyl sulfoxide v/v (DMSO, Fisher Scientific) was added to each well immediately prior to addition of 10 μl of a co-factor solution containing 80 mM MgCl2 (Sigma Cat #: M1028); 80 mM MnCl2 (Sigma Cat #: M1787); ATP at a concentration calculated to enable the initial reaction velocity to progress at half the maximum velocity (Km for ATP) (Sigma Cat #:A7699). A final addition of 20 μl of enzyme solution containing 100 mM HEPES pH7.4; 0.2 mM sodium vanadate (Sigma Cat #:S6508); 0.2 g/l bovine serum albumin (BSA, Sigma Cat #: A7888); 0.2 mM dithioreitol (Sigma Cat #: 5545); 0.1% Triton X100 (Sigma Cat #:X100); FAK enzyme (20 μl/ml) was made to each well to start the assay running FAK enzyme was generated from an insect culture infected with baculo virus containing the DNA sequence encoding the 6 His tagged kinase domain (GenBank NP_722560).
Plates were left at room temperature for 25 minutes before 10 μl of 500 mM ethylenediaminetetraacetic acid (EDTA) was added to stop the assay and the wells were immediately washed 3×100 μl with PBS+0.05% Tween 20. A 4G10 antibody (Millipore Cat #: 16-105; 16-184) with a directly conjugated horse radish peroxidase (HRP) was used to detect the phosphorylation of the substrate by the FAK. 40 μl of PBS+0.05% Tween 20 containing 0.5% BSA and 0.1 μl/ml antibody was added to each well and left for 1 hour at room temperature to allow the antibody to bind. After this period the wells were again washed with 3×100 μl of PBS+0.05% Tween 20. TMB (Sigma Cat #: T2885) was used as a substrate for the HRP. Phosphate-citrate buffer was made up using capsules provided by Sigma (Cat #: P4922) following the manufacturers guidelines. TMB was dissolved at a concentration of 1 mg/ml in DMSO and let down to a final concentration of 0.05 mg/ml with the phosphor-citrate buffer. 40 μl of the TMB solution was added to each assay well and left for 30 minutes for the blue colour to develop. […]

T1 sequence (Q05397 422-680 limits assumed): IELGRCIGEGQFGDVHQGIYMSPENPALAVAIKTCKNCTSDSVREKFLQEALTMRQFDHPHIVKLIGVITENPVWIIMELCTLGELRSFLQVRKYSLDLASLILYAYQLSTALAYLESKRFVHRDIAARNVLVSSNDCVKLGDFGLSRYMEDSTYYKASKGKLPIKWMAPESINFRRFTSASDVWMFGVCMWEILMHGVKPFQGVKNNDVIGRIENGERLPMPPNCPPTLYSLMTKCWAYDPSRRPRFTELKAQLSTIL

What is called IC50 is the concentration that gives 50% inhibition. For `CN1CCc2cccc(Nc3cc(Nc4cnn(C)c4)ncc3Cl)c2C1=O` [Example 3.28, 8-[[5-Chloro-2-[(1-methylpyrazol-4-yl)amino]-4-pyridyl]amino]-2-methyl-3,4-dihydroisoquinolin-1-one], the half-inhibitory concentration (IC50) was determined as 41 nM.
For `CN1CCC(n2cc(Nc3cc(Nc4cccc5c4C(=O)N(C)CC5)c(Cl)cn3)cn2)CC1` [Example 3.29, 8-[[5-chloro-2-[[1-(1-methyl-4-piperidyl)pyrazol-4-yl]amino]-4-pyridyl]amino]-2-methyl-3,4-dihydroisoquinolin-1-one], it took 118 nM to reach half-maximal inhibition (IC50).
In turn, `Cc1cc(Nc2cc(Nc3cccc4c3C(=O)N(C)CC4)c(Cl)cn2)nn1C` [Example 3.30, 8-[[5-chloro-2-[(1,5-dimethylpyrazol-3-yl)amino]-4-pyridyl]amino]-2-methyl-3,4-dihydroisoquinolin-1-one] returned an IC50 of 59 nM.
Then `CC(=O)N1CCC(n2cc(Nc3cc(Nc4cccc5c4C(=O)N(C)CC5)c(Cl)cn3)cn2)CC1` [Example 3.31, 8-[[2-[[1-(1-acetyl-4-piperidyl)pyrazol-4-yl]amino]-5-chloro-4-pyridyl]amino]-2-methyl-3,4-dihydroisoquinolin-1-one], with 171 nM.
The result for `Cc1nn(C)cc1Nc1cc(Nc2cccc3c2C(=O)N(C)CC3)c(Cl)cn1` [Example 3.32, 8-[[5-chloro-2-[(1,3-dimethylpyrazol-4-yl)amino]-4-pyridyl]amino]-2-methyl-3,4-dihydroisoquinolin-1-one] reads 9 nM; that for `CN1CCc2cccc(Nc3cc(Nc4cnn(C5CCNCC5)c4)ncc3Cl)c2C1=O` [Example 3.33, 8-[[5-Chloro-2-[[1-(4-piperidyl)pyrazol-4-yl]amino]-4-pyridyl]amino]-2-methyl-3,4-dihydroisoquinolin-1-one], 191 nM; that for `CN1CCc2cccc(Nc3cc(Nc4cnn(C5CCCNC5)c4)ncc3Cl)c2C1=O` (stereo not shown) [Example 3.34, 8-[[5-chloro-2-[[1-(3-piperidyl)pyrazol-4-yl]amino]-4-pyridyl]amino]-2-methyl-3,4-dihydroisoquinolin-1-one], 160 nM.
Then `Cc1nn(C)cc1Nc1cc(Nc2cccc3c2C(=O)N(C)C3)c(Cl)cn1` [Example 3.35, 7-[[5-Chloro-2-[(1,3-dimethylpyrazol-4-yl)amino]-4-pyridyl]amino]-2-methyl-isoindolin-1-one], with 36 nM.
Take `CNC(=O)c1cc(N2CCN(C)CC2)ccc1Nc1cc(Nc2cc(C)n(C)n2)ncc1Cl` [Example 3.36, 2-[[5-Chloro-2-[(1,5-dimethylpyrazol-3-yl)amino]-4-pyridyl]amino]-N-methyl-5-(4-methylpiperazin-1-yl)benzamide]: the IC50 worked out at 249 nM.
The result for `CNC(=O)c1cc(N2CCN(C)CC2)ccc1Nc1cc(Nc2cn(C)nc2C)ncc1Cl` [Example 3.37, 2-[[5-chloro-2-[(1,3-dimethylpyrazol-4-yl)amino]-4-pyridyl]amino]-N-methyl-5-(4-methylpiperazin-1-yl)benzamide] reads 1050 nM; that for `Cc1nn(C)cc1Nc1cc(Nc2ccc(N3CCN(C(C)C)CC3)c3c2C(=O)N(C)C3)c(Cl)cn1` [Example 3.38, 7-[[5-Chloro-2-[(1,3-dimethylpyrazol-4-yl)amino]-4-pyridyl]amino]-4-(4-isopropylpiperazin-1-yl)-2-methyl-isoindolin-1-one], 36 nM.
The result for `CNC(=O)c1cccc(F)c1Nc1cc(Nc2cn(C)nc2C)ncc1Cl` [Example 3.39, 2-[[5-Chloro-2-[(1,3-dimethylpyrazol-4-yl)amino]-4-pyridyl]amino]-3-fluoro-N-methyl-benzamide] reads 55 nM; that for `CNC(=O)c1c(F)cccc1Nc1cc(Nc2cn(C)nc2C)ncc1Cl` [Example 3.40, 2-[[5-Chloro-2-[(1,3-dimethylpyrazol-4-yl)amino]-4-pyridyl]amino]-6-fluoro-N-methyl-benzamide], 122 nM.
Then `CNC(=O)c1cc(F)ccc1Nc1cc(Nc2cn(C)nc2C)ncc1Cl` [Example 3.41, 2-[[5-chloro-2-[(1,3-dimethylpyrazol-4-yl)amino]-4-pyridyl]amino]-5-fluoro-N-methyl-benzamide], with 87 nM; and `CNC(=O)c1ccc(F)cc1Nc1cc(Nc2cn(C)nc2C)ncc1Cl` [Example 3.42, 2-[[5-chloro-2-[(1,3-dimethylpyrazol-4-yl)amino]-4-pyridyl]amino]-4-fluoro-N-methyl-benzamide], with 5 nM.
Compound `CNC(=O)c1ccccc1Nc1cc(Nc2cnn(CC(=O)N3CCCC3)c2)ncc1F` [Example 4.01, 2-[[5-Fluoro-2-[[1-(2-oxo-2-pyrrolidin-1-yl-ethyl)pyrazol-4-yl]amino]-4-pyridyl]amino]-N-methyl-benzamide] showed an IC50 of 1510 nM.
Then `CNC(=O)c1ccccc1Nc1cc(Nc2cnn(CC(=O)N(C)C3CCN(C)CC3)c2)ncc1F` [Example 4.02, 2-[[5-fluoro-2-[[1-[2-[methyl-(1-methyl-4-piperidyl)amino]-2-oxo-ethyl]pyrazol-4-yl]amino]-4-pyridyl]amino]-N-methyl-benzamide], with 1320 nM; and `CNC(=O)c1ccccc1Nc1cc(Nc2cnn(CC(=O)N(C)CCOC)c2)ncc1F` [Example 4.03], with 2120 nM; and `CNC(=O)c1ccccc1Nc1cc(Nc2cnn(CC(=O)N3CCCN(C)CC3)c2)ncc1F` [Example 4.04, 2-[[5-fluoro-2-[[1-[2-(4-methyl-1,4-diazepan-1-yl)-2-oxo-ethyl]pyrazol-4-yl]amino]-4-pyridyl]amino]-N-methyl-benzamide], with 967 nM.
On to `CNC(=O)c1ccccc1Nc1cc(Nc2cnn(CC(=O)N3CCOCC3)c2)ncc1F` [Example 4.05, 2-[[5-fluoro-2-[[1-(2-morpholino-2-oxo-ethyl)pyrazol-4-yl]amino]-4-pyridyl]amino]-N-methyl-benzamide], for which 1300 nM corresponded to half-maximal inhibition (IC50).
Then `CNC(=O)c1ccccc1Nc1cc(Nc2cnn(CC(=O)N3CCC(N(C)C)CC3)c2)ncc1F` [Example 4.06, 2-[[2-[[1-[2-(4-dimethylamino-1-piperidyl)-2-oxo-ethyl]pyrazol-4-yl]amino]-5-fluoro-4-pyridyl]amino]-N-methyl-benzamide], with 1050 nM; and `CNC(=O)c1ccccc1Nc1cc(Nc2cnn(CC(=O)N3CCN(C)CC3)c2)ncc1F` [Example 4.07, 2-[[5-fluoro-2-[[1-[2-(4-methylpiperazin-1-yl)-2-oxo-ethyl]pyrazol-4-yl]amino]-4-pyridyl]amino]-N-methyl-benzamide], with 577 nM; and `CNC(=O)c1ccccc1Nc1cc(Nc2cnn(C)c2)ncc1F` [Example 4.08, 2-[[5-Fluoro-2-[(1-methylpyrazol-4-yl)amino]-4-pyridyl]amino]-N-methyl-benzamide], with 2190 nM.
Then `CNC(=O)c1ccccc1Nc1cc(Nc2cnn(C3CCOCC3)c2)ncc1F` [Example 4.09, 2-[[5-fluoro-2-[(1-tetrahydropyran-4-ylpyrazol-4-yl)amino]-4-pyridyl]amino]-N-methyl-benzamide], with 3380 nM; and `CNC(=O)c1ccccc1Nc1cc(Nc2cn(C)nc2C)ncc1F` [Example 4.10, 2-[[2-[(1,3-dimethylpyrazol-4-yl)amino]-5-fluoro-4-pyridyl]amino]-N-methyl-benzamide], with 1770 nM.
